# Results taken from PubChem BioAssay (NCI).
#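 Grown in 96-well plates, cells were treated for 48 hours with each compound at five concentrations. Insufficient inhibition: endpoint recorded as highest concentration tested. Here, GI50 denotes the concentration required for 50% inhibition of growth. TGI is the concentration that stops growth completely.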
# Tests used:
# Assay in all cases: NCI-60 cell line screen, 48 h
# MDA-MB-468 breast = tested on: MDA-MB-468 breast
# SN12C renal = tested on: SN12C renal
# EKVX NSCLC = tested on: EKVX NSCLC
# SR leukemia = tested on: SR leukemia
# NCI/ADR-RES ovarian = tested on: NCI/ADR-RES ovarian
# NCI-H460 lung = tested on: NCI-H460 lung
# BT-549 breast = tested on: BT-549 breast
# HS 578T breast = tested on: HS 578T breast
# NCI-H23 lung = tested on: NCI-H23 lung
# SW-620 colon = tested on: SW-620 colon
# NCI-H522 lung = tested on: NCI-H522 lung
# UACC-62 melanoma = tested on: UACC-62 melanoma
# UACC-257 melanoma = tested on: UACC-257 melanoma
# HOP-62 NSCLC = tested on: HOP-62 NSCLC
# LOX IMVI melanoma = tested on: LOX IMVI melanoma
# T-47D breast = tested on: T-47D breast
# U251 CNS = tested on: U251 CNS
# HL-60(TB) leukemia = tested on: HL-60(TB) leukemia
# HOP-92 NSCLC = tested on: HOP-92 NSCLC
# OVCAR-4 ovarian = tested on: OVCAR-4 ovarian
# 786-0 renal = tested on: 786-0 renal
# MALME-3M melanoma = tested on: MALME-3M melanoma
# SK-MEL-28 melanoma = tested on: SK-MEL-28 melanoma
# PC-3 prostate = tested on: PC-3 prostate
# MDA-MB-231 breast = tested on: MDA-MB-231 breast
# SK-MEL-2 melanoma = tested on: SK-MEL-2 melanoma
# UO-31 renal = tested on: UO-31 renal
# SK-OV-3 ovarian = tested on: SK-OV-3 ovarian
# HCT-116 colon = tested on: HCT-116 colon
# SK-MEL-5 melanoma = tested on: SK-MEL-5 melanoma
# OVCAR-5 ovarian = tested on: OVCAR-5 ovarian
# CAKI-1 renal = tested on: CAKI-1 renal
# SF-539 CNS = tested on: SF-539 CNS
# SF-295 CNS = tested on: SF-295 CNS
# OVCAR-8 ovarian = tested on: OVCAR-8 ovarian
# NCI-H226 lung = tested on: NCI-H226 lung
# HCC-2998 colon = tested on: HCC-2998 colon
# MDA-MB-435 = tested on: MDA-MB-435
# RXF 393 renal = tested on: RXF 393 renal
# KM12 colon = tested on: KM12 colon
# HCT-15 colon = tested on: HCT-15 colon
# COLO 205 colon = tested on: COLO 205 colon
# OVCAR-3 ovarian = tested on: OVCAR-3 ovarian
# SF-268 CNS = tested on: SF-268 CNS
# TK-10 renal = tested on: TK-10 renal
# CCRF-CEM leukemia = tested on: CCRF-CEM leukemia
# A498 renal = tested on: A498 renal
# SNB-19 CNS = tested on: SNB-19 CNS
# HT29 colon = tested on: HT29 colon
# A549 NSCLC = tested on: A549 NSCLC
# SNB-75 CNS = tested on: SNB-75 CNS
# DU-145 prostate = tested on: DU-145 prostate
# IGROV1 ovarian = tested on: IGROV1 ovarian
# MOLT-4 leukemia = tested on: MOLT-4 leukemia
# MCF7 breast = tested on: MCF7 breast
# M14 melanoma = tested on: M14 melanoma
# K-562 leukemia = tested on: K-562 leukemia
# ACHN renal = tested on: ACHN renal
smiles,measurement,setting,value
N#Cc1c(-c2ccccc2)nc2c(c(-c3ccccc3)nn2-c2ccccc2)c1-c1ccc(O)cc1,GI50,MDA-MB-468 breast,2410 nM
same,TGI,MDA-MB-468 breast,5.57 µM
C=CC(=O)N1CCN(c2ncnc3c(F)c(-c4c(O)cccc4F)c(Cl)cc23)CC1,GI50,MDA-MB-468 breast,10200 nM
same,TGI,MDA-MB-468 breast,31.1 µM
COc1ccc(/C=C/C(=O)c2ccc(S(=O)(=O)NCCNc3nc(Nc4ccc(F)cc4)nc(N(C)C)n3)cc2)cc1,GI50,SN12C renal,3.6 µM
same,TGI,SN12C renal,13.3 µM
same,GI50,EKVX NSCLC,4.12 µM
same,TGI,EKVX NSCLC,22.3 µM
same,GI50,SR leukemia,2970 nM
same,TGI,SR leukemia,13.2 µM
same,GI50,NCI/ADR-RES ovarian,5.66 µM
same,TGI,NCI/ADR-RES ovarian,35.5 µM
same,GI50,NCI-H460 lung,4.11 µM
same,TGI,NCI-H460 lung,21.6 µM
same,GI50,BT-549 breast,13.2 µM
same,TGI,BT-549 breast,27.4 µM
same,GI50,HS 578T breast,4.68 µM
same,TGI,HS 578T breast,44.8 µM
same,GI50,MDA-MB-468 breast,2570 nM
same,TGI,MDA-MB-468 breast,10.3 µM
same,GI50,NCI-H23 lung,10.4 µM
same,TGI,NCI-H23 lung,50.5 µM
same,GI50,SW-620 colon,5.42 µM
same,TGI,SW-620 colon,19.7 µM
same,GI50,NCI-H522 lung,2550 nM
same,TGI,NCI-H522 lung,12.5 µM
same,GI50,UACC-62 melanoma,4.79 µM
same,TGI,UACC-62 melanoma,19.3 µM
same,GI50,UACC-257 melanoma,13.3 µM
same,TGI,UACC-257 melanoma,38.4 µM
same,GI50,HOP-62 NSCLC,17.1 µM
same,TGI,HOP-62 NSCLC,> 100 µM
same,GI50,LOX IMVI melanoma,3.23 µM
same,TGI,LOX IMVI melanoma,11.5 µM
same,GI50,T-47D breast,3.78 µM
same,TGI,T-47D breast,89.8 µM
same,GI50,U251 CNS,6.7 µM
same,TGI,U251 CNS,21.5 µM
same,GI50,HL-60(TB) leukemia,3.6 µM
same,TGI,HL-60(TB) leukemia,31.5 µM
same,GI50,HOP-92 NSCLC,3.25 µM
same,TGI,HOP-92 NSCLC,31 µM
same,GI50,OVCAR-4 ovarian,4.12 µM
same,TGI,OVCAR-4 ovarian,> 100 µM
same,GI50,786-0 renal,6.33 µM
same,TGI,786-0 renal,> 100 µM
same,GI50,MALME-3M melanoma,10.6 µM
same,TGI,MALME-3M melanoma,43.9 µM
same,GI50,SK-MEL-28 melanoma,5.23 µM
same,TGI,SK-MEL-28 melanoma,19 µM
same,GI50,PC-3 prostate,3.5 µM
same,TGI,PC-3 prostate,> 100 µM
same,GI50,MDA-MB-231 breast,2730 nM
same,TGI,MDA-MB-231 breast,10.5 µM
same,GI50,SK-MEL-2 melanoma,8.1 µM
same,TGI,SK-MEL-2 melanoma,22.3 µM
same,GI50,UO-31 renal,3.78 µM
same,TGI,UO-31 renal,99.4 µM
same,GI50,SK-OV-3 ovarian,13.9 µM
same,TGI,SK-OV-3 ovarian,76.3 µM
same,GI50,HCT-116 colon,1860 nM
same,TGI,HCT-116 colon,3.62 µM
same,GI50,SK-MEL-5 melanoma,3.5 µM
same,TGI,SK-MEL-5 melanoma,13.2 µM
same,GI50,OVCAR-5 ovarian,8.44 µM
same,TGI,OVCAR-5 ovarian,45.9 µM
same,GI50,CAKI-1 renal,3.34 µM
same,TGI,CAKI-1 renal,> 100 µM
same,GI50,SF-539 CNS,10.3 µM
same,TGI,SF-539 CNS,23 µM
same,GI50,SF-295 CNS,5.05 µM
same,TGI,SF-295 CNS,18.7 µM
same,GI50,OVCAR-8 ovarian,9.51 µM
same,TGI,OVCAR-8 ovarian,> 100 µM
same,GI50,NCI-H226 lung,3.8 µM
same,TGI,NCI-H226 lung,20.4 µM
same,GI50,HCC-2998 colon,5.47 µM
same,TGI,HCC-2998 colon,18 µM
same,GI50,MDA-MB-435,5.47 µM
same,TGI,MDA-MB-435,23.4 µM
same,GI50,RXF 393 renal,2590 nM
same,TGI,RXF 393 renal,12.3 µM
same,GI50,KM12 colon,4.01 µM
same,TGI,KM12 colon,16.7 µM
same,GI50,HCT-15 colon,2710 nM
same,TGI,HCT-15 colon,7.07 µM
same,GI50,COLO 205 colon,3.46 µM
same,TGI,COLO 205 colon,14.3 µM
same,GI50,OVCAR-3 ovarian,5.01 µM
same,TGI,OVCAR-3 ovarian,19.9 µM
same,GI50,SF-268 CNS,4.43 µM
same,TGI,SF-268 CNS,55.8 µM
same,GI50,TK-10 renal,8.09 µM
same,TGI,TK-10 renal,> 100 µM
same,GI50,CCRF-CEM leukemia,4.09 µM
same,TGI,CCRF-CEM leukemia,> 100 µM
same,GI50,A498 renal,10 µM
same,TGI,A498 renal,29.7 µM
same,GI50,SNB-19 CNS,5.58 µM
same,TGI,SNB-19 CNS,45.5 µM
same,GI50,HT29 colon,1830 nM
same,TGI,HT29 colon,3.73 µM
same,GI50,A549 NSCLC,6.54 µM
same,TGI,A549 NSCLC,> 100 µM
same,GI50,SNB-75 CNS,3.57 µM
same,TGI,SNB-75 CNS,> 100 µM
same,GI50,DU-145 prostate,7.54 µM
same,TGI,DU-145 prostate,> 100 µM
same,GI50,IGROV1 ovarian,10.8 µM
same,TGI,IGROV1 ovarian,45.6 µM
same,GI50,MOLT-4 leukemia,3.12 µM
same,TGI,MOLT-4 leukemia,13.2 µM
same,GI50,MCF7 breast,1930 nM
same,TGI,MCF7 breast,5.85 µM
same,GI50,M14 melanoma,4.27 µM
same,TGI,M14 melanoma,19.2 µM
same,GI50,K-562 leukemia,3.99 µM
same,TGI,K-562 leukemia,> 100 µM
same,GI50,ACHN renal,3.4 µM
same,TGI,ACHN renal,> 100 µM
